According to publication PMC11847391, “Synthesis and biological activities of 3-aminoimidazo[1,2-α]pyridine compounds” (BMC Chemistry, 2025):

What was measured:
[1] = tested on: MCF-7 human breast cancer cell line; experiment: Cytotoxicity, Trypan blue exclusion test, MCF-7; type: cell-based; details: for IC50: MCF-7, 24 h, Trypan blue exclusion, mean ± SD of two independent experiments
Protocol: (§1) The synthesized compounds were assessed for their cytotoxic effects on three different cancer cell lines: the MCF-7 human breast cancer cell line (ATCC number: HTB-22), the HT-29 human colorectal adenocarcinoma cell line [HTB-38; American Type Culture Collection (ATCC), Manassas, VA, USA], and the B16F10 murine melanoma cancer cell line [CRL-6475; American Type Culture Collection (ATCC), Manassas, VA, USA], as well as the normal cell line mouse Embryonic Fibroblast-1 cell line (MEF-1; ATCC CRL-2214). The cell line was cultivated in high-glucose Dulbecco’s Modified Eagle Medium (DMEM) that is supplemented with L-glutamine, phenol red (Fuji Film Wako, Osaka, Japan), 10% fetal bovine serum (FBS; G.E. Healthcare, Chicago, IL, USA), and 1% penicillin/streptomycin (P/S) (Nacalai Tesque, Kyoto, Japan). Exponentially growing cells (1 × 10^5 cells/well) were seeded in a 24-well plate with sterile-filtered DMEM medium at 37 °C under 5% CO2 and incubated overnight. The cells were then treated with different concentrations of test compounds (5, 10, 50, and 100 µg/mL) and incubated for 24 h in a humidified atmosphere. After 24 h of incubation, viable cells were counted in each well using the Trypan blue exclusion test. All compounds were initially dissolved in DMSO, and the final concentration of DMSO was less than 1% in all of the considered concentrations of the applied compounds. The IC50 values from at least two independent experiments were compared with the control and expressed as the mean ± SD. The analysis of two groups was performed using the student t-test, and P-values < 0.05 were statistically significant.

[2] = tested on: B16F10 murine melanoma cancer cell line; experiment: Cytotoxicity, Trypan blue exclusion test, B16F10; type: cell-based; details: for IC50: B16F10, 24 h, Trypan blue exclusion, mean ± SD of two independent experiments
Protocol: as §1

[3] = tested on: HT-29 human colorectal adenocarcinoma cell line; experiment: Cytotoxicity, Trypan blue exclusion test, HT-29; type: cell-based; details: for IC50: HT-29, 24 h, Trypan blue exclusion, mean ± SD of two independent experiments
Protocol: as §1

[4] = tested on: mouse Embryonic Fibroblast-1 cell line (MEF-1); experiment: Cytotoxicity, Trypan blue exclusion test, normal MEF cells; type: cell-based; details: for IC50: 24 h, normal cell line MEF, Trypan blue exclusion, mean ± SD of two independent experiments
Protocol: as §1

B16F10 cell line = experiment: Morphological changes of treated B16F10 cells; type: cell-based, murine; details: high concentrations (≥ 50 µg/ml), versus untreated cancer cells
Excerpt: (§2) In comparison to the control (untreated cancer cells), the three cancer cell lines (MCF-7, HT-29, and B16F10) were investigated for morphological changes after being treated with the synthesized compounds 9–19.

HT-29 cell line = experiment: Morphological changes of treated HT-29 cells; type: cell-based, human; details: high concentrations (≥ 50 µg/ml), versus untreated cancer cells
Excerpt: as §2

Structure (SMILES)	Cytotoxicity against B16F10 (in words) [2]	IC50 ([1]; Homo sapiens, MCF7, 24 h) [µM]	IC50 ([2]; Mus musculus, B16-F10, 24 h) [µM]	IC50 ([3]; Homo sapiens) [µM]	IC50 ([4]; Mus musculus, MEF) [µM]	also measured
COc1ccc(-c2nc3ccccn3c2Nc2ccc(Cl)cc2)cc1OCc1ccccc1 [Compound 10, 2-(3-(Benzyloxy)−4-methoxyphenyl)-N-(4-chlorophenyl)imidazo[1,2-a]pyridin-3-amine]	ineffective	–	–	–	–	Cytotoxicity against MCF-7 (in words) [1]: ineffective; Cytotoxicity against HT-29 (in words) [3]: ineffective
Clc1ccc(Nc2c(-c3c[nH]c4ccccc34)nc3ccccn23)cc1 [Compound 11, N-(4-chlorophenyl)−2-(1 H-indol-3-yl)imidazo[1,2-a]pyridin-3-amine]	–	20.47 ± 0.1	39.2 ± 1.84	18.3 ± 1.22	1.84 ± 0.83	IC50 [4]: < 1.84 µM
O=[N+]([O-])c1ccccc1-c1nc2ccccn2c1Nc1ccc(Cl)cc1 [Compound 12, N-(4-chlorophenyl)−2-(2-nitrophenyl)imidazo[1,2-a]pyridin-3-amine]	–	30.9 ± 14.4	64.8 ± 15.8	4.15 ± 2.93	40.5 ± 4.34	Morphological changes, B16F10 (B16F10 cell line): shrinkage and lost their original form; Morphological changes, HT-29 (HT-29 cell line): shrinkage and lost their original form; Cytotoxicity against normal cells relative to HT-29 (fold lower) ([4]; MEF IC50 versus HT-29 IC50): tenfold
Clc1ccc(Nc2c(-c3ccco3)nc3ccccn23)cc1 [Compound 13, N-(4-chlorophenyl)−2-(furan-2-yl)imidazo[1,2-a]pyridin-3-amine]	–	66.5 ± 37.9	–	48.3 ± 0.53	32.93 ± 0.09	IC50 [1]: > 45 µM; IC50 [3]: > 45 µM
Cc1cccc(-c2nc3ccccn3c2Nc2ccc(Cl)cc2)c1 [Compound 14, N-(4-chlorophenyl)−2-(m-tolyl)imidazo[1,2-a]pyridin-3-amine]	–	–	21.8 ± 0.81	44.45 ± 0.15	> 200	Morphological changes, B16F10 (B16F10 cell line): shrinkage and lost their original form; Morphological changes, HT-29 (HT-29 cell line): shrinkage and lost their original form
COc1cccc(-c2nc3ccccn3c2Nc2ccc(Cl)cc2)c1OC [Compound 15, N-(4-chlorophenyl)−2-(2,3-dimethoxyphenyl)imidazo[1,2-a]pyridin-3-amine]	ineffective	–	–	–	–	Cytotoxicity against MCF-7 (in words) [1]: ineffective; Cytotoxicity against HT-29 (in words) [3]: ineffective
Clc1ccc(Nc2c(-c3ccc4ccccc4c3)nc3ccccn23)cc1 [Compound 16, N-(4-chlorophenyl)−2-(naphthalen-2-yl)imidazo[1,2-a]pyridin-3-amine]	inactive	84 ± 3.37	–	93.08 ± 0.61	–	–
Clc1ccc(Nc2c(-c3ccsc3)nc3ccccn23)cc1 [Compound 17, N-(4-chlorophenyl)−2-(thiophen-3-yl)imidazo[1,2-a]pyridin-3-amine]	ineffective	–	–	–	–	Cytotoxicity against MCF-7 (in words) [1]: ineffective; Cytotoxicity against HT-29 (in words) [3]: ineffective
Fc1ccc(-c2nc3ccccn3c2Nc2ccc(Cl)cc2)c(F)c1 [Compound 18, N-(4-chlorophenyl)−2-(2,4-difluorophenyl)imidazo[1,2-a]pyridin-3-amine]	–	14.8 ± 0.2	14.39 ± 0.04	10.1 ± 0.7	16.31 ± 0.08	IC50 [1]: < 15 µM; IC50 [2]: < 15 µM; IC50 [3]: < 15 µM
FC(F)(F)c1ccc(-c2nc3ccccn3c2Nc2ccc(Cl)cc2)cc1 [Compound 19, N-(4-chlorophenyl)−2-(4-(trifluoromethyl)phenyl)imidazo[1,2-a]pyridin-3-amine]	–	≥ 200	≥ 200	85.5 ± 18.8	63.9 ± 2.33	–
CC(=O)O[C@H]1C(=O)[C@@]2(C)[C@H]([C@H](OC(=O)c3ccccc3)[C@]3(O)C[C@H](OC(=O)[C@H](O)[C@@H](NC(=O)c4ccccc4)c4ccccc4)C(C)=C1C3(C)C)[C@]1(OC(C)=O)CO[C@@H]1C[C@@H]2O [Paclitaxel (Taxol), Paclitaxel, reference compound]	–	0.00834	55.7	0.0166	17.2	–
